The values below are quoted from earlier work in patent EP1982712A1 (priority 2005, dated 2007).

Molecules are shown by their SMILES.

The conditions of this data set: for Clearance (route of elimination) / distribution volumes / time to reach the maximum concentration: in vivo; for time to reach the maximum concentration: po.

With `CCC(C)n1ncn(-c2ccc(N3CCN(c4ccc(OCC5COC(Cn6cncn6)(c6ccc(Cl)cc6Cl)O5)cc4)CC3)cc2)c1=O` (stereo not shown) [itraconazole, Itraconazole], the “Clearance (route of elimination)” value is reported as “cleared mainly through hepatic metabolism”, the distribution volumes result is “about 10.7 l/kg” and the “time to reach the maximum concentration” value is “up to four”. Besides, for the setting “after oral administration”, the bioavailability result is reported as “about 50%”.

Regarding `OC(Cn1cncn1)(Cn1cncn1)c1ccc(F)cc1F` [fluconazole, Fluconazole], the “Clearance (route of elimination)” value is on record as “eliminated in a higher proportion in urine”, the distribution volumes was 0.7 to 1 L/kg and the “time to reach the maximum concentration” value is “two”.
